Structures are written as SMILES. Read-outs that look alike come from different tables or passages of the source. A value given as a limit tells only on which side of the number the result lay.

The results in this text go back to patent US20150141381A1, “TETRACYCLINE COMPOUNDS HAVING TARGET THERAPEUTIC ACTIVITIES” (Paratek Pharmaceuticals, Inc., priority 2001, published 2015).

One experiment relates to E. coli mL308 225. In words: In Vitro Anti-Bacterial Activity Assay (MIC), gram negative. The note with it: Escherichia coli, ML308225, 18 h. It counts as cell-based.
Experiment [1] deals with cultured murine cortical neurons. In words: Protection of Cultured Cortical Neurons from Excitotoxic Injury Induced by NMDA (NE Assay). It counts as cell-based, mice. The note with it: NMDA 62.5 μM, LDH release 24 hours after starting the exposure. The protocol: Primary cortical astrocyte cultures were prepared from one-day old mice, as described in the literature procedure (Tikka, T M et al. J Immunol. 2001 Jun. 15; 166(12):7527-33). After decapitation, the forebrain cortices were collected, cleaned from meninges and, after mincing, dissociated by incubation in papain/Dnase solution followed by trituration. The dissociated cells were suspended in a culture medium consisting of Eagle's minimal essential medium (MEM) with 10% heat-inactivated fetal bovine serum and glutamine (2 mM) and plated in 75 cm^2 cell culture flasks. The medium was replaced with fresh culture medium at day 7. At confluence (day 12-15), the astrocytes were trypsinized and re-plated into 24-well culture vessels. On day 7-8, the neurons were cultured on top of these confluent astrocyte monolayers.
Cortical neuron suspensions were prepared from embryonic day 17 mice. The cortices were collected and meninges removed. The tissue was minced into small pieces and incubated in trypsin solution. The tissue was suspended using a pipette and after centrifugation resuspended and plated on top of astrocyte cultures at a density of 250,000 cells/well to 24-well culture vessel in Eagle's minimal essential medium (MEM, Earle's salts) supplemented with 20 mM glucose, 2 mM glutamine, 10% fetal bovine serum, and 10% heat-inactivated horse serum (HS). Medium was changed after 5 days to MEM containing 20 mM glucose, 2 mM glutamine, and 10% HS, as well as cytosine arabinoside (final concentration 10 μM) to inhibit cell division, and incubated for 2 days. Subsequently, cultures were fed twice weekly with MEM supplemented with 20 mM glucose, 2 mM glutamine and 10% HS, and used at day 12-15.
On the day of experiment, the culture medium was replaced with 1) MEM, 2) MEM containing the test tetracycline compounds. Positive control drug included 10 μM MK-801 (Sigma). […] As a control for total neuronal death, a 24 hour incubation with 500 μM NMDA was used (100% cell death control).
The cell viability was assessed by measuring lactate dehydrogenase (LDH) release 24 hours after starting the exposure. The LDH release to the culture medium was measured from cell-free medium using Sigma LDH reagent employing kinetic measurement of conversion of lactate to pyruvate using NADH as a cofactor. The rate of increase in absorbance at 340 nm was directly proportional to the activity of LDH in the sample, and was measured with a Labsystems Multiskan ELISA reader.
For orientation: LDH in the medium is a marker of cell lysis.

Another experiment concerns S. aureus RN450. In words: In Vitro Anti-Bacterial Activity Assay (MIC), gram positive. It counts as cell-based. The note with it: Staphylococcus aureus, RN450, 18 h.
[2] abbreviates: MIC class, Table 3, read-out: Antibiotic Activity Gram −.
Where [3] appears, read: MIC class, Table 3, read-out: Antibiotic Activity Gram +.
Setting [4] is: gram negative bacteria, read-out: Antibiotic Activity Gram − (MIC).
Where [5] appears, read: gram positive bacteria, read-out: Antibiotic Activity Gram + (MIC).

Regarding `CN(C)c1cc(NC(=O)Nc2ccc([N+](=O)[O-])cc2)c(O)c2c1C[C@H]1C[C@H]3[C@@H](N(C)C)C(O)=C(C(N)=O)C(=O)[C@@]3(O)C(O)=C1C2=O` [CD], the values for the MIC in the experiment on E. coli mL308 225 (setting [2]) and in the experiment with S. aureus RN450 (setting [3]) were over 4 µg/mL and under 4 µg/mL, respectively. Also, the “neuroprotection (cell viability by LDH release)” value (shortened to “neuroprotection”) in experiment [1] is “good neuroprotection”.
Consider `CN(C)CCCOC(=O)/C=C/c1ccc(O)c2c1C[C@H]1C[C@H]3[C@H](N(C)C)C(O)=C(C(N)=O)C(=O)[C@@]3(O)C(O)=C1C2=O` [BP], for which the MIC in the experiment with E. coli mL308 225 (setting [2]) and in the experiment on S. aureus RN450 (setting [3]) was under 4 µg/mL in each case. In addition, the “neuroprotection” value in experiment [1] was “good neuroprotection”.
For the molecule `CN(C)C1C(O)=C(C(N)=O)C(=O)[C@@]2(O)C(O)=C3C(=O)c4c(O)ccc(CNCC(C)(C)C)c4C[C@H]3C[C@@H]12` (stereo partly drawn) [JD], the MIC in the experiment with E. coli mL308 225 (setting [2]) and in the experiment with S. aureus RN450 (setting [3]) was under 4 µg/mL throughout. Besides, in experiment [1], the “neuroprotection” value was “good neuroprotection”.
Take `CN(C)c1cc(NC(=O)Nc2cccc(F)c2)c(O)c2c1C[C@H]1C[C@H]3[C@@H](N(C)C)C(O)=C(C(N)=O)C(=O)[C@@]3(O)C(O)=C1C2=O` [H]: the MIC in the experiment with E. coli mL308 225 (setting [2]) is over 4 µg/mL; in the experiment with S. aureus RN450 (setting [3]) it was under 4 µg/mL. The “neuroprotection” value in experiment [1] is given as “good neuroprotection”.
Regarding `CCC(=O)O[C@H]1[C@H]2C(=C(O)[C@]3(O)C(=O)C(C(N)=O)=C(O)[C@@H](N(C)C)[C@H]13)C(=O)c1c(O)cccc1[C@@H]2C` [M], the MIC in the experiment on E. coli mL308 225 (setting [2]) was over 4 µg/mL; in the experiment on S. aureus RN450 (setting [3]), under 4 µg/mL. In addition, in experiment [1], the “neuroprotection” value is recorded as “good neuroprotection”.
With `CN(C)[C@@H]1C(O)=C(C(N)=O)C(=O)[C@@]2(O)C(O)=C3C(=O)c4c(O)c(C(C)(C)C)cc(CN)c4C[C@H]3C[C@@H]12` [IE], the MIC with E. coli mL308 225 (setting [2]) and in the experiment with S. aureus RN450 (setting [3]) was over 4 µg/mL in each case. Moreover, in experiment [1], the “neuroprotection” value is reported as “good neuroprotection”.
As to `C=C1c2cccc(O)c2C(=O)C2=C(O)[C@]3(O)C(=O)C(C(N)=O)=C(O)[C@@H](N(C)C)[C@@H]3[C@@H](O)[C@H]12` [C], the MIC in the experiment on E. coli mL308 225 (setting [2]) and in the experiment on S. aureus RN450 (setting [3]) was over 4 µg/mL in each case. Further, in experiment [1], the “neuroprotection” value is given as “good neuroprotection”.
Turning to `CN(C)[C@@H]1C(O)=C(C(N)=O)C(=O)[C@@]2(O)C(O)=C3C(=O)c4c(O)ccc(/C=C/C(=O)NC(C)(C)C)c4C[C@H]3C[C@@H]12` [CW], the MIC was over 4 µg/mL with E. coli mL308 225 (setting [2]) and under 4 µg/mL with S. aureus RN450 (setting [3]). The “neuroprotection” value in experiment [1] is recorded as “good neuroprotection”.
The matching figures for `CN(C)[C@H]1C(O)=C(C(N)=O)C(=O)[C@@]2(O)C(O)=C3C(=O)c4c(O)c(CN)cc(-c5ccccc5)c4C[C@H]3C[C@@H]12` [JC]: over 4 µg/mL, over 4 µg/mL and “good neuroprotection”.
The corresponding values for `CN(C)Cc1ccc(O)c2c1C[C@H]1C[C@H]3[C@@H](N(C)C)C(O)=C(C(N)=O)C(=O)[C@@]3(O)C(O)=C1C2=O` [KF] are under 4 µg/mL, under 4 µg/mL and “good neuroprotection”.
The corresponding values for `CN(C)c1cc(NCc2ccc3c(c2)OCO3)c(O)c2c1C[C@H]1C[C@H]3[C@H](N(C)C)C(O)=C(C(N)=O)C(=O)[C@@]3(O)C(O)=C1C2=O` [EV] are over 4 µg/mL, over 4 µg/mL and “good neuroprotection”.
On to `CC(C)NCc1ccc(O)c2c1C[C@H]1C[C@H]3C(N(C)C)C(O)=C(C(N)=O)C(=O)[C@@]3(O)C(O)=C1C2=O` (stereo partly drawn) [KK], for which the MIC in the experiment with E. coli mL308 225 (setting [2]) and with S. aureus RN450 (setting [3]) was under 4 µg/mL each time.
With `COc1ccc(CNC(C)C)cc1-c1ccc(O)c2c1C[C@H]1C[C@H]3[C@H](N(C)C)C(O)=C(C(N)=O)C(=O)[C@@]3(O)C(O)=C1C2=O` [LR], the MIC in the experiment on E. coli mL308 225 (setting [2]) and in the experiment with S. aureus RN450 (setting [3]) was under 4 µg/mL each time.
Regarding `CN(C)[C@@H]1C(O)=C(C(N)=O)C(=O)[C@@]2(O)C(O)=C3C(=O)c4c(O)ccc(Cl)c4C=C3C[C@@H]12`, the MIC in the experiment on E. coli mL308 225 (setting [4]) and with S. aureus RN450 (setting [5]) was under 4 µg/mL throughout.
Regarding `CN(C)c1cc(-c2ccc(OC(F)(F)F)cc2)c(O)c2c1C[C@H]1C[C@H]3[C@H](N(C)C)C(O)=C(C(N)=O)C(=O)[C@@]3(O)C(O)=C1C2=O` [EK], the values for the MIC in the experiment with E. coli mL308 225 (setting [2]) and with S. aureus RN450 (setting [3]) were over 4 µg/mL and under 4 µg/mL, respectively.
The matching figures for `CN(C)C(=O)C(=O)c1ccc(O)c2c1C[C@H]1C[C@H]3C(N(C)C)C(O)=C(C(N)=O)C(=O)[C@@]3(O)C(O)=C1C2=O` (stereo partly drawn) [MR]: under 4 µg/mL and under 4 µg/mL.
The matching figures for `CN(C)[C@@H]1C(O)=C(C(N)=O)C(=O)[C@@]2(O)C(O)=C3C(=O)c4c(O)ccc(-c5ccc(CNC(C)(C)C)o5)c4C[C@H]3C[C@@H]12` [MD]: under 4 µg/mL and under 4 µg/mL.
Regarding `C[C@H]1c2ccc(CNCCc3ccccc3)c(O)c2C(=O)C2=C(O)[C@]3(O)C(=O)C(C(N)=O)=C(O)[C@@H](N(C)C)[C@@H]3[C@@H](O)[C@@H]21` [JI], the MIC in the experiment with E. coli mL308 225 (setting [2]) and in the experiment on S. aureus RN450 (setting [3]) was under 4 µg/mL in each case.
Turning to `CONCc1ccc(-c2cc(N(C)C)c3c(c2O)C(=O)C2=C(O)[C@]4(O)C(=O)C(C(N)=O)=C(O)[C@@H](N(C)C)[C@@H]4C[C@@H]2C3)[nH]1`, the MIC in the experiment on E. coli mL308 225 (setting [4]) and with S. aureus RN450 (setting [5]) was under 4 µg/mL each time.
For the molecule `CCCCOc1ccc(I)c2c1C(=O)C1=C(O)[C@]3(O)C(=O)C(C(N)=O)=C(O)[C@@H](N(C)C)[C@@H]3C[C@@H]1C2` [OS], the MIC in the experiment on E. coli mL308 225 (setting [2]) and with S. aureus RN450 (setting [3]) was over 4 µg/mL each time.
Turning to `CC(=O)c1ccc(-c2ccc(O)c3c2C[C@H]2C[C@H]4[C@H](N(C)C)C(O)=C(C(N)=O)C(=O)[C@@]4(O)C(O)=C2C3=O)cc1`, the MIC was under 4 µg/mL in the experiment with E. coli mL308 225 (MIC class, Table 3 (Continued), read-out: Gram− activity) and under 4 µg/mL in the experiment with S. aureus RN450 (MIC class, Table 3 (Continued), read-out: Gram+ activity).
Turning to `CN(C)[C@@H]1C(O)=C(C(N)=O)C(=O)[C@@]2(O)C(O)=C3C(=O)c4c(ccc(CN)c4O)C[C@H]3C[C@@H]12` [AR], the MIC in the experiment with E. coli mL308 225 (setting [2]) and in the experiment on S. aureus RN450 (setting [3]) was under 4 µg/mL each time.
For the molecule `CCc1cc(CNC(=O)c2cccnc2)c(O)c2c1C[C@H]1C[C@H]3[C@H](N(C)C)C(O)=C(C(N)=O)C(=O)[C@@]3(O)C(O)=C1C2=O` [CS], the MIC with E. coli mL308 225 (setting [2]) and in the experiment on S. aureus RN450 (setting [3]) was over 4 µg/mL in each case.
Take `CN(C)[C@@H]1C(O)=C(C(N)=O)C(=O)[C@@]2(O)C(O)=C3C(=O)c4c(O)cc(Cl)c(N)c4C[C@H]3C[C@@H]12`: the MIC in the experiment with E. coli mL308 225 (setting [4]) and with S. aureus RN450 (setting [5]) was over 4 µg/mL each time.
As to `CN(C)CC#Cc1ccc(O)c2c1C[C@H]1C[C@H]3[C@H](N(C)C)C(O)=C(C(N)=O)C(=O)[C@@]3(O)C(O)=C1C2=O` [AL], the MIC in the experiment with E. coli mL308 225 (setting [2]) and with S. aureus RN450 (setting [3]) was under 4 µg/mL each time.
Consider `CN(C)[C@@H]1C(O)=C(C(N)=O)C(=O)[C@@]2(O)C(O)=C3C(=O)c4c(O)ccc(CNCc5ccccc5)c4C[C@H]3C[C@@H]12`, for which the MIC in the experiment on E. coli mL308 225 (setting [4]) and with S. aureus RN450 (setting [5]) was under 4 µg/mL in each case.
For the molecule `CN(C)c1cc(CN2CCC3(CC2)OCCO3)c(O)c2c1C[C@H]1C[C@H]3[C@H](N(C)C)C(O)=C(C(N)=O)C(=O)[C@@]3(O)C(O)=C1C2=O`, the MIC in the experiment on E. coli mL308 225 (setting [4]) and in the experiment with S. aureus RN450 (setting [5]) was under 4 µg/mL throughout.
Consider `CC(NNC(N)=O)c1ccc(O)c2c1C[C@H]1C[C@H]3[C@H](N(C)C)C(O)=C(C(N)=O)C(=O)[C@@]3(O)C(O)=C1C2=O` (stereo partly drawn), for which the MIC with E. coli mL308 225 (setting [4]) was over 4 µg/mL; in the experiment with S. aureus RN450 (setting [5]) it was under 4 µg/mL.
The matching figures for `CN(C)Cc1cc(N(C)C)c2c(c1O)C(=O)C1=C(O)[C@]3(O)C(=O)C(C(N)=O)=C(O)[C@@H](N(C)C)[C@@H]3C[C@@H]1C2`: over 4 µg/mL and under 4 µg/mL.
